Test results reported in ChEMBL document CHEMBL1201862, “PubChem BioAssay data set” (2004).
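In this assay, cells in 96-well plates receive the compound at five concentrations for 48 hours. Endpoints are linearly interpolated between the surrounding concentrations. The concentration for 50% growth inhibition is given as GI50.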 Activity calls are given as the source filed them. Rule as the data show it: active = GI50 up to about 1.1 µM and inactive = higher.

How the values were obtained:
Assay in all cases: DTP human tumour cell line panel, 48 h
MDA-N = tested on: MDA-N
SR = tested on: SR
PC-3 = tested on: PC-3
SK-MEL-5 = tested on: SK-MEL-5
M14 = tested on: M14
UO-31 = tested on: UO-31
SN12C = tested on: SN12C
SNB-75 = tested on: SNB-75
OVCAR-4 = tested on: OVCAR-4
OVCAR-8 = tested on: OVCAR-8
SF-295 = tested on: SF-295
EKVX = tested on: EKVX
IGROV-1 = tested on: IGROV-1
U-251 = tested on: U-251
OVCAR-3 = tested on: OVCAR-3
MDA-MB-435 = tested on: MDA-MB-435
HCT-116 = tested on: HCT-116
HOP-62 = tested on: HOP-62
SF-268 = tested on: SF-268
SF-539 = tested on: SF-539
RPMI-8226 = tested on: RPMI-8226
SW-620 = tested on: SW-620
K562 = tested on: K562
HT-29 = tested on: HT-29
NCI-H522 = tested on: NCI-H522
NCI-H460 = tested on: NCI-H460
HOP-92 = tested on: HOP-92
SK-MEL-2 = tested on: SK-MEL-2
BT-549 = tested on: BT-549
Hs-578T = tested on: Hs-578T
MCF7 = tested on: MCF7
SNB-19 = tested on: SNB-19
ACHN = tested on: ACHN
MDA-MB-231 = tested on: MDA-MB-231
T47D = tested on: T47D
OVCAR-5 = tested on: OVCAR-5
SK-MEL-28 = tested on: SK-MEL-28
NCI/ADR-RES = tested on: NCI/ADR-RES
SK-OV-3 = tested on: SK-OV-3
KM12 = tested on: KM12
NCI-H226 = tested on: NCI-H226
TK-10 = tested on: TK-10
CAKI-1 = tested on: CAKI-1
A498 = tested on: A498
COLO 205 = tested on: COLO 205
HCC 2998 = tested on: HCC 2998
UACC-257 = tested on: UACC-257
A549 = tested on: A549
Malme-3M = tested on: Malme-3M
NCI-H23 = tested on: NCI-H23
DU-145 = tested on: DU-145
HCT-15 = tested on: HCT-15
786-0 = tested on: 786-0
RXF 393 = tested on: RXF 393
HL-60 = tested on: HL-60
LOX IMVI = tested on: LOX IMVI
CCRF-CEM = tested on: CCRF-CEM
MOLT-4 = tested on: MOLT-4
UACC-62 = tested on: UACC-62

Question: O=C(O)c1ccccc1CC(Cc1ccccc1)C(=O)O (stereo unspecified) was tested. Which GI50 (MDA-N) did it give?
Answer: > 100 µM (inactive)

Question: What about the GI50 (SR) of the same molecule?
Answer: > 100 µM (inactive)

Question: And the GI50 (PC-3)?
Answer: > 100 µM (inactive)

Question: What about the GI50 (SK-MEL-5) of the same molecule?
Answer: > 100 µM (inactive)

Question: What about the GI50 (M14) of the same molecule?
Answer: > 100 µM (inactive)

Question: What about the GI50 (UO-31) of the same molecule?
Answer: > 100 µM (inactive)

Question: And the GI50 (SN12C)?
Answer: > 100 µM (inactive)

Question: And the GI50 (SNB-75)?
Answer: > 100 µM (inactive)

Question: And the GI50 (OVCAR-4)?
Answer: > 100 µM (inactive)

Question: What about the GI50 (OVCAR-8) of the same molecule?
Answer: > 100 µM (inactive)

Question: What about the GI50 (SF-295) of the same molecule?
Answer: > 100 µM (inactive)

Question: What about the GI50 (EKVX) of the same molecule?
Answer: > 100 µM (inactive)

Question: What about the GI50 (IGROV-1) of the same molecule?
Answer: > 100 µM (inactive)

Question: And the GI50 (U-251)?
Answer: > 100 µM (inactive)

Question: What about the GI50 (OVCAR-3) of the same molecule?
Answer: > 100 µM (inactive)

Question: What about the GI50 (MDA-MB-435) of the same molecule?
Answer: > 100 µM (inactive)

Question: And the GI50 (HCT-116)?
Answer: > 100 µM (inactive)

Question: What about the GI50 (HOP-62) of the same molecule?
Answer: > 100 µM (inactive)

Question: And the GI50 (SF-268)?
Answer: 97.1 µM (inactive)

Question: What about the GI50 (SF-539) of the same molecule?
Answer: > 100 µM (inactive)

Question: What about the GI50 (RPMI-8226) of the same molecule?
Answer: > 100 µM (inactive)

Question: What about the GI50 (SW-620) of the same molecule?
Answer: > 100 µM (inactive)

Question: And the GI50 (K562)?
Answer: > 100 µM (inactive)

Question: What about the GI50 (HT-29) of the same molecule?
Answer: > 100 µM (inactive)

Question: And the GI50 (NCI-H522)?
Answer: > 100 µM (inactive)

Question: What about the GI50 (NCI-H460) of the same molecule?
Answer: > 100 µM (inactive)

Question: And the GI50 (HOP-92)?
Answer: > 100 µM (inactive)

Question: And the GI50 (SK-MEL-2)?
Answer: > 100 µM (inactive)

Question: And the GI50 (BT-549)?
Answer: > 100 µM (inactive)

Question: And the GI50 (Hs-578T)?
Answer: > 100 µM (inactive)

Question: What about the GI50 (MCF7) of the same molecule?
Answer: > 10 µM (inactive)

Question: And the GI50 (SNB-19)?
Answer: > 100 µM (inactive)

Question: And the GI50 (ACHN)?
Answer: > 100 µM (inactive)

Question: What about the GI50 (MDA-MB-231) of the same molecule?
Answer: > 100 µM (inactive)

Question: What about the GI50 (T47D) of the same molecule?
Answer: > 100 µM (inactive)

Question: And the GI50 (OVCAR-5)?
Answer: > 100 µM (inactive)

Question: What about the GI50 (SK-MEL-28) of the same molecule?
Answer: > 100 µM (inactive)

Question: And the GI50 (NCI/ADR-RES)?
Answer: > 100 µM (inactive)

Question: What about the GI50 (SK-OV-3) of the same molecule?
Answer: > 100 µM (inactive)

Question: And the GI50 (KM12)?
Answer: > 100 µM (inactive)

Question: What about the GI50 (NCI-H226) of the same molecule?
Answer: > 100 µM (inactive)

Question: And the GI50 (TK-10)?
Answer: > 100 µM (inactive)

Question: What about the GI50 (CAKI-1) of the same molecule?
Answer: > 100 µM (inactive)

Question: What about the GI50 (A498) of the same molecule?
Answer: > 100 µM (inactive)

Question: And the GI50 (COLO 205)?
Answer: > 100 µM (inactive)

Question: And the GI50 (HCC 2998)?
Answer: > 100 µM (inactive)

Question: What about the GI50 (UACC-257) of the same molecule?
Answer: > 100 µM (inactive)

Question: What about the GI50 (A549) of the same molecule?
Answer: > 100 µM (inactive)

Question: And the GI50 (Malme-3M)?
Answer: > 100 µM (inactive)

Question: What about the GI50 (NCI-H23) of the same molecule?
Answer: > 100 µM (inactive)

Question: And the GI50 (DU-145)?
Answer: > 100 µM (inactive)

Question: What about the GI50 (HCT-15) of the same molecule?
Answer: > 100 µM

Question: And the GI50 (786-0)?
Answer: > 100 µM (inactive)

Question: What about the GI50 (RXF 393) of the same molecule?
Answer: > 100 µM (inactive)

Question: What about the GI50 (HL-60) of the same molecule?
Answer: > 100 µM (inactive)

Question: And the GI50 (LOX IMVI)?
Answer: > 100 µM (inactive)

Question: And the GI50 (CCRF-CEM)?
Answer: > 100 µM (inactive)

Question: What about the GI50 (MOLT-4) of the same molecule?
Answer: > 100 µM (inactive)

Question: For CC(=O)N(C(=O)CC(=O)NNCc1ccccc1Cl)c1ccc(Cl)cc1, which GI50 (MDA-N) is on record?
Answer: > 10 µM (inactive)

Question: What about the GI50 (SR) of the same molecule?
Answer: > 10 µM (inactive)

Question: And the GI50 (PC-3)?
Answer: > 10 µM (inactive)

Question: What about the GI50 (SK-MEL-5) of the same molecule?
Answer: > 10 µM (inactive)

Question: And the GI50 (M14)?
Answer: > 10 µM (inactive)

Question: What about the GI50 (UO-31) of the same molecule?
Answer: > 10 µM (inactive)

Question: And the GI50 (SN12C)?
Answer: > 10 µM (inactive)

Question: What about the GI50 (SNB-75) of the same molecule?
Answer: > 10 µM (inactive)

Question: What about the GI50 (OVCAR-4) of the same molecule?
Answer: > 10 µM (inactive)

Question: And the GI50 (OVCAR-8)?
Answer: > 10 µM (inactive)

Question: What about the GI50 (SF-295) of the same molecule?
Answer: > 10 µM (inactive)

Question: And the GI50 (EKVX)?
Answer: 4.99 µM (inactive)

Question: And the GI50 (IGROV-1)?
Answer: > 10 µM (inactive)

Question: And the GI50 (U-251)?
Answer: > 10 µM (inactive)

Question: What about the GI50 (OVCAR-3) of the same molecule?
Answer: > 10 µM (inactive)

Question: And the GI50 (MDA-MB-435)?
Answer: > 10 µM (inactive)

Question: What about the GI50 (HCT-116) of the same molecule?
Answer: > 10 µM (inactive)

Question: What about the GI50 (HOP-62) of the same molecule?
Answer: > 10 µM (inactive)

Question: And the GI50 (SF-268)?
Answer: > 10 µM (inactive)

Question: What about the GI50 (SF-539) of the same molecule?
Answer: > 10 µM (inactive)

Question: What about the GI50 (RPMI-8226) of the same molecule?
Answer: > 10 µM (inactive)

Question: What about the GI50 (K562) of the same molecule?
Answer: > 10 µM (inactive)

Question: What about the GI50 (HT-29) of the same molecule?
Answer: > 10 µM (inactive)

Question: And the GI50 (NCI-H522)?
Answer: > 10 µM (inactive)

Question: And the GI50 (NCI-H460)?
Answer: > 10 µM (inactive)

Question: And the GI50 (HOP-92)?
Answer: > 10 µM (inactive)

Question: What about the GI50 (SK-MEL-2) of the same molecule?
Answer: > 10 µM (inactive)

Question: What about the GI50 (BT-549) of the same molecule?
Answer: > 10 µM (inactive)

Question: What about the GI50 (Hs-578T) of the same molecule?
Answer: > 10 µM (inactive)

Question: And the GI50 (MCF7)?
Answer: 5.97 µM (inactive)

Question: And the GI50 (SNB-19)?
Answer: > 10 µM (inactive)

Question: What about the GI50 (UACC-62) of the same molecule?
Answer: > 10 µM (inactive)

Question: What about the GI50 (ACHN) of the same molecule?
Answer: > 10 µM (inactive)

Question: And the GI50 (MDA-MB-231)?
Answer: > 10 µM (inactive)

Question: What about the GI50 (T47D) of the same molecule?
Answer: 8.11 µM (inactive)

Question: What about the GI50 (OVCAR-5) of the same molecule?
Answer: > 10 µM (inactive)

Question: What about the GI50 (SK-MEL-28) of the same molecule?
Answer: > 10 µM (inactive)

Question: What about the GI50 (NCI/ADR-RES) of the same molecule?
Answer: > 10 µM (inactive)

Question: What about the GI50 (SK-OV-3) of the same molecule?
Answer: > 10 µM (inactive)

Question: What about the GI50 (KM12) of the same molecule?
Answer: > 10 µM (inactive)

Question: And the GI50 (NCI-H226)?
Answer: > 10 µM (inactive)

Question: And the GI50 (TK-10)?
Answer: > 10 µM (inactive)

Question: What about the GI50 (CAKI-1) of the same molecule?
Answer: > 10 µM (inactive)

Question: What about the GI50 (A498) of the same molecule?
Answer: > 10 µM (inactive)

Question: And the GI50 (COLO 205)?
Answer: > 10 µM (inactive)

Question: What about the GI50 (HCC 2998) of the same molecule?
Answer: > 10 µM (inactive)

Question: What about the GI50 (UACC-257) of the same molecule?
Answer: > 10 µM (inactive)

Question: What about the GI50 (A549) of the same molecule?
Answer: > 10 µM (inactive)

Question: What about the GI50 (Malme-3M) of the same molecule?
Answer: > 10 µM (inactive)

Question: And the GI50 (NCI-H23)?
Answer: > 10 µM (inactive)

Question: What about the GI50 (DU-145) of the same molecule?
Answer: > 10 µM (inactive)

Question: And the GI50 (HCT-15)?
Answer: > 10 µM

Question: What about the GI50 (786-0) of the same molecule?
Answer: > 10 µM (inactive)

Question: And the GI50 (RXF 393)?
Answer: > 10 µM (inactive)

Question: And the GI50 (HL-60)?
Answer: > 10 µM (inactive)

Question: And the GI50 (LOX IMVI)?
Answer: > 10 µM (inactive)

Question: What about the GI50 (CCRF-CEM) of the same molecule?
Answer: > 10 µM (inactive)

Question: And the GI50 (MOLT-4)?
Answer: > 10 µM (inactive)
